From ChEMBL document CHEMBL1201862, “PubChem BioAssay data set” (2004)
Active and inactive are the calls of the source.

Legend:
[1] = target: T1, Short transient receptor potential channel 4 (Mus musculus, UniProt Q9QUQ5); test: TRPC4 positive allosteric modulators, dose response, cell-based, HEK293 TRPC4/mu-opioid, Fluo-4 calcium, EC20 DAMGO (AID 434941); type: functional
T1 sequence (Q9QUQ5 whole entry): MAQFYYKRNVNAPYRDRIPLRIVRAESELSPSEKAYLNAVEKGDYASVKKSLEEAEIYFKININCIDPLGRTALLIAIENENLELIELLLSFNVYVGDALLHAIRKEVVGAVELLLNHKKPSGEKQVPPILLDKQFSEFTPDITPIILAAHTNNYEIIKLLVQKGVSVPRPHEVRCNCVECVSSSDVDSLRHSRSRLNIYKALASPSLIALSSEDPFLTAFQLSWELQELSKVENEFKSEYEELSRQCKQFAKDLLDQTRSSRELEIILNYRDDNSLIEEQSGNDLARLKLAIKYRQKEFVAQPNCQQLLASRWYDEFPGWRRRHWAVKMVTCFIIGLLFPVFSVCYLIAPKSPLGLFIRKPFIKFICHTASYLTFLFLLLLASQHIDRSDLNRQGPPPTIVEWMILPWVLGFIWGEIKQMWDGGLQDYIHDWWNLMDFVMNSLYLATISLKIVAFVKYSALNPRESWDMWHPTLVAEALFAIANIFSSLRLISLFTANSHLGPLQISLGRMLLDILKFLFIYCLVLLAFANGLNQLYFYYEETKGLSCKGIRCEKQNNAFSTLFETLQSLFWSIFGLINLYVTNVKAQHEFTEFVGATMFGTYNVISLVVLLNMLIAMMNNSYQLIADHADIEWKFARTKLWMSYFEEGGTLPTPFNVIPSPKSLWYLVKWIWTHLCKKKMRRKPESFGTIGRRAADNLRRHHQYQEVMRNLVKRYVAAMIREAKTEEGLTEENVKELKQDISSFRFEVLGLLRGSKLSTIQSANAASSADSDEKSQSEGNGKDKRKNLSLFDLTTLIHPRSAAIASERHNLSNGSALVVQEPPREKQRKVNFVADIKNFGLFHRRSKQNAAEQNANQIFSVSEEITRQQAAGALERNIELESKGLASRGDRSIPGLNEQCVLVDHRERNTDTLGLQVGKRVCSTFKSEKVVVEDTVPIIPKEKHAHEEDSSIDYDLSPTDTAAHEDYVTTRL

[2] = target: T1, Short transient receptor potential channel 4; test: mouse TRPC4 channel activators, dose response, cell-based, HEK293 TRPC4/mu-opioid, Fluo-4 calcium (AID 434937); type: functional
Hexokinase = target: T2, Hexokinase (Trypanosoma brucei, UniProt Q38C41); test: Confirmation assay for inhibitors of Trypanosoma brucei hexokinase 1-Analogue-first series. [Related pubchem assays (depositor defined):AID1430, AID1632, AID2516, AID2560, AID2579, AID2600, AID449725, AID492951]; type: functional
T2 sequence (Q38C41 whole entry): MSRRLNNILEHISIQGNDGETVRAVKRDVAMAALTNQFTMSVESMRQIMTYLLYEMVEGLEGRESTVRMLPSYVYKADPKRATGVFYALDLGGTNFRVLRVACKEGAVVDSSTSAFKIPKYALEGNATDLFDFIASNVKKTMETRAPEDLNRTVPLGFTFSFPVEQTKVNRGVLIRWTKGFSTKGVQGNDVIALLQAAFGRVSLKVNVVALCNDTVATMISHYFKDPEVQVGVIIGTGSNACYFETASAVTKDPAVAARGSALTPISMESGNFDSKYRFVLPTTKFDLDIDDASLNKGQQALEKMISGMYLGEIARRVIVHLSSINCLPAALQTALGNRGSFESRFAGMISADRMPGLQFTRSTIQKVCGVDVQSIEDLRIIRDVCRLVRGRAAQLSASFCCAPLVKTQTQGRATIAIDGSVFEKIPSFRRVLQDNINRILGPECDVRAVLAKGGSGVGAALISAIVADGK

[3] = cytotoxicity in HEK-293T cells, dose response, cytotoxicity control for TCR NF-kB inhibitor project, luminescence, T-cell screen hits (AID 489026); type: functional, cell-based;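 further: cells exposed to compound about 14 hours before the viability readout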
[4] = target: DNA damage-inducible transcript 3 protein (Mus musculus, UniProt P35639); type: functional, Cricetulus griseus
Sequence of DNA damage-inducible transcript 3 protein (P35639 whole entry): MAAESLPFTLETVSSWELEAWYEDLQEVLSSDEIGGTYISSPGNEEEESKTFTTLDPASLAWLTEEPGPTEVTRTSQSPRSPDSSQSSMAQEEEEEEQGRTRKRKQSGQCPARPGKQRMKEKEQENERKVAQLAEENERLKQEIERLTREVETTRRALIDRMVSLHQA

X-box-binding protein 1 = target: T3, X-box-binding protein 1 (Homo sapiens, UniProt P17861); type: functional, Cricetulus griseus;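 further: confirmatory dose-response counter-screen serving a CHOP assay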
T3 sequence (P17861 whole entry): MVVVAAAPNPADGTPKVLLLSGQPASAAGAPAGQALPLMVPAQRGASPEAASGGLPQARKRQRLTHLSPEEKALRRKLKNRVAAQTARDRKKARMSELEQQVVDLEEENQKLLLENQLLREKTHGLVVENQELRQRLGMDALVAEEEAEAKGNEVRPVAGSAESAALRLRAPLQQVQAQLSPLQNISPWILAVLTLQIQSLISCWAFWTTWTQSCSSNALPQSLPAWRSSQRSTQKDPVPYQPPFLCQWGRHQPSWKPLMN

H9c2 = test: cells; type: functional, cell-based; settings: Rattus norvegicus, H9c2, Myocardium;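 further: confirmatory concentration-response retest of ultra-high-throughput screening hits for modulation of myocardial damage; cell death induced by hydrogen peroxide oxidative stress; compound pretreatment for 60 min then peroxide exposure for 2 h; potency is for protecting the cells against peroxide damage rather than for killing them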
[5] = target: T4, Voltage-gated N-type calcium channel alpha-1B subunit/Amyloid beta A4 precursor protein-binding family A member 1 (Homo sapiens, UniProt Q00975+Q02410); type: protein assay
T4 sequence (Q00975 whole entry): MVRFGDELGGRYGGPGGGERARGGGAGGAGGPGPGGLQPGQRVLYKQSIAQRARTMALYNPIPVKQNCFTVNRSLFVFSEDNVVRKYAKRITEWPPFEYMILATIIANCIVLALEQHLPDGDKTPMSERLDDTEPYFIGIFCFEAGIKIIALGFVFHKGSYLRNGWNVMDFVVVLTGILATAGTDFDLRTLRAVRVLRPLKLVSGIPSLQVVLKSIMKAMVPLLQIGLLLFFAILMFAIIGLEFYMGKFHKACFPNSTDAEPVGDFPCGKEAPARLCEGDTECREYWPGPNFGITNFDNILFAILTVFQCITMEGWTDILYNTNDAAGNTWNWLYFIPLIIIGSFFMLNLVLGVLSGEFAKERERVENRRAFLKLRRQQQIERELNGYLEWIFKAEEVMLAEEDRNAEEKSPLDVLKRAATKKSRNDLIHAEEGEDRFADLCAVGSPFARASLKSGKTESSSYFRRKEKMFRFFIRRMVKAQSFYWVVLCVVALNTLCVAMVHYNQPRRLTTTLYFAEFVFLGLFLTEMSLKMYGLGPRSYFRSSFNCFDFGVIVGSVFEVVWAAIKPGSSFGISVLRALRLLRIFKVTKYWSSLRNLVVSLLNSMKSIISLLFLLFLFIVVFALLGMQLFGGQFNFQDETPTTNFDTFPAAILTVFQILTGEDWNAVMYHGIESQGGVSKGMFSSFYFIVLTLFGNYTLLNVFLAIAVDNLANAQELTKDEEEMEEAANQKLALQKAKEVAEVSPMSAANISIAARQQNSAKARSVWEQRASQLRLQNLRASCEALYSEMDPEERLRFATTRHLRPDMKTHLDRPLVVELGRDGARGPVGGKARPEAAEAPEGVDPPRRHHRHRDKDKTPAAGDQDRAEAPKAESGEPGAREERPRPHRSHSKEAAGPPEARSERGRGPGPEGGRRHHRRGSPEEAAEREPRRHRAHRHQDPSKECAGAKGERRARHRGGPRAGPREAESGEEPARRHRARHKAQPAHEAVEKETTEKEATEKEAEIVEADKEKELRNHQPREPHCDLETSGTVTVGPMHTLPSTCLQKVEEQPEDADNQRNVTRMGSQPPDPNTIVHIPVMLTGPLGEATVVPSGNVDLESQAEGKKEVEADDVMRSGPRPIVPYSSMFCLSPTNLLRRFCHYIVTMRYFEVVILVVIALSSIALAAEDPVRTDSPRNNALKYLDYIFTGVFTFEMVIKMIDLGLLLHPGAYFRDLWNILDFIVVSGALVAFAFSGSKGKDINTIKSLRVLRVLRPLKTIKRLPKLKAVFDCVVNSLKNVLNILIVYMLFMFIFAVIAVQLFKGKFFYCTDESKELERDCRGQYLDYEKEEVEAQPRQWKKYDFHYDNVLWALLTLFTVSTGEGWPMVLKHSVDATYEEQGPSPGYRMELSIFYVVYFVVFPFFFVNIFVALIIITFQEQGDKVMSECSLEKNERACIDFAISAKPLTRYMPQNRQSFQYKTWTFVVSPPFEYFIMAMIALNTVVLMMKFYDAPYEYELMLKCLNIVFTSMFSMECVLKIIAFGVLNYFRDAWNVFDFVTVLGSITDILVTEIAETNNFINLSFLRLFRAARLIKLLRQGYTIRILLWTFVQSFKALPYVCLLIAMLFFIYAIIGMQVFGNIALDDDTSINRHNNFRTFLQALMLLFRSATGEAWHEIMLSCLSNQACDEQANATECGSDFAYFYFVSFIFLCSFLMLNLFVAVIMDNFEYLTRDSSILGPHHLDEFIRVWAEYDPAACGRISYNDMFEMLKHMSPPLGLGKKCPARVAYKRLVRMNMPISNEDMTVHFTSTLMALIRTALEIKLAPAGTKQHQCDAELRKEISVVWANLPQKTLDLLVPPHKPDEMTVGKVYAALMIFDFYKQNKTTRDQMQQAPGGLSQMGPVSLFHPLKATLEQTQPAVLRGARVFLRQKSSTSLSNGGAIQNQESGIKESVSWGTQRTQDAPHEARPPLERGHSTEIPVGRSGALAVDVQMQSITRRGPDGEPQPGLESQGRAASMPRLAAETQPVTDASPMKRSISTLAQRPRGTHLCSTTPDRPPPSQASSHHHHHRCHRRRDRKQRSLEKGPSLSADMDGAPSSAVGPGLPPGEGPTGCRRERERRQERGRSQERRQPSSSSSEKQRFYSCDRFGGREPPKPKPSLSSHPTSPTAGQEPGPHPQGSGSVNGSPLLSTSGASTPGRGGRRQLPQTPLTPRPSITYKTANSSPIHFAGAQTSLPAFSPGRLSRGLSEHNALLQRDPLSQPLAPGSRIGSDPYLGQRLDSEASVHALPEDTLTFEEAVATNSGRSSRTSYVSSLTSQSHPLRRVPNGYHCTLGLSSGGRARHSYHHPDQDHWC
T4 sequence (Q02410 whole entry): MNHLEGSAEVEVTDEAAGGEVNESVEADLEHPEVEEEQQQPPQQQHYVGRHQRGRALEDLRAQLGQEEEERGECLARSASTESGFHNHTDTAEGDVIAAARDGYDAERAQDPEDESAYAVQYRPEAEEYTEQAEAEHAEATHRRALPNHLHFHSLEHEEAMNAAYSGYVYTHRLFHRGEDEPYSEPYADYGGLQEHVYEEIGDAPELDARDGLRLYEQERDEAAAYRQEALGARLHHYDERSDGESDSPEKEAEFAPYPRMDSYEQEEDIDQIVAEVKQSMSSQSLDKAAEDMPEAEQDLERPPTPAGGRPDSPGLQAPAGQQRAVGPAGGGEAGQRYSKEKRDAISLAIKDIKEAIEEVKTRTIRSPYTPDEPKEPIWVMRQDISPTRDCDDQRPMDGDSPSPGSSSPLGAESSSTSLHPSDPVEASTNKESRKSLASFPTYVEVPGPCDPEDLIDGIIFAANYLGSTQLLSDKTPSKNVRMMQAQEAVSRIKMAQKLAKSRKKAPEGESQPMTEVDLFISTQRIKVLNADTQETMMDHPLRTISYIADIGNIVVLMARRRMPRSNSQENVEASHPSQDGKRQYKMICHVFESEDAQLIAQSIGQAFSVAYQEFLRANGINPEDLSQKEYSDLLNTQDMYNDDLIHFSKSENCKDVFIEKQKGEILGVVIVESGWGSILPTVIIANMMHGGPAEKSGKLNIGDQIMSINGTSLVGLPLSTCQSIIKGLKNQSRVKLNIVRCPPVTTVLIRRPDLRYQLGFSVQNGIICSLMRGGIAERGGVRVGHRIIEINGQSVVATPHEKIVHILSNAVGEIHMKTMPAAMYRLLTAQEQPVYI

[6] = target: T4, Voltage-gated N-type calcium channel alpha-1B subunit/Amyloid beta A4 precursor protein-binding family A member 1; type: protein assay; remark: listed apart in the source
[7] = target: Heat shock protein HSP 90-alpha (Homo sapiens, UniProt P07900); type: functional, organism-based
Saccharomyces cerevisiae = test: NALP1 inhibitor project selectivity study, Caspase-1/ASC signal blockade IC50 in S. cerevisiae (AID 488863); type: functional, organism-based
[8] = target: Luciferin 4-monooxygenase (Photinus pyralis, UniProt P08659); test: firefly luciferase enzyme inhibitors, dose response, biochemical, luminescence (AID 1891)
Sequence of Luciferin 4-monooxygenase (P08659 whole entry, the tested form may be a part): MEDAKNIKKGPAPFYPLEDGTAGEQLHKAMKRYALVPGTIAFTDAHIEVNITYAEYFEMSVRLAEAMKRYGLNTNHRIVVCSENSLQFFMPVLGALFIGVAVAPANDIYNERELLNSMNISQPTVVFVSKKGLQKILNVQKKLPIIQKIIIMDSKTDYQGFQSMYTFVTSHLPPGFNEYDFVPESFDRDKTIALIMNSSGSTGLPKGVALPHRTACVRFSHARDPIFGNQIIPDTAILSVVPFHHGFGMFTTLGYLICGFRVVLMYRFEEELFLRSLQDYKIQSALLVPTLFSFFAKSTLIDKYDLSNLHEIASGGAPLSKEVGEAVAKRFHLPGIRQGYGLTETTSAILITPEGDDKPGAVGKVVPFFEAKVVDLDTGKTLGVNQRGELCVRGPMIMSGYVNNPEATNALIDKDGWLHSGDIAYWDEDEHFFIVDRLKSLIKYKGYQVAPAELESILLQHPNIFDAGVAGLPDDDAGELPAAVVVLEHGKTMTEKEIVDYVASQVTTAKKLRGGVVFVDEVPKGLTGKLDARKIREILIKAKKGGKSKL

[9] = target: T5, NACHT, LRR and PYD domains-containing protein 1 (Homo sapiens, UniProt Q9C000); test: NALP1 inhibitors in yeast, dose response, luminescent (AID 488860); type: functional
T5 sequence (Q9C000 whole entry): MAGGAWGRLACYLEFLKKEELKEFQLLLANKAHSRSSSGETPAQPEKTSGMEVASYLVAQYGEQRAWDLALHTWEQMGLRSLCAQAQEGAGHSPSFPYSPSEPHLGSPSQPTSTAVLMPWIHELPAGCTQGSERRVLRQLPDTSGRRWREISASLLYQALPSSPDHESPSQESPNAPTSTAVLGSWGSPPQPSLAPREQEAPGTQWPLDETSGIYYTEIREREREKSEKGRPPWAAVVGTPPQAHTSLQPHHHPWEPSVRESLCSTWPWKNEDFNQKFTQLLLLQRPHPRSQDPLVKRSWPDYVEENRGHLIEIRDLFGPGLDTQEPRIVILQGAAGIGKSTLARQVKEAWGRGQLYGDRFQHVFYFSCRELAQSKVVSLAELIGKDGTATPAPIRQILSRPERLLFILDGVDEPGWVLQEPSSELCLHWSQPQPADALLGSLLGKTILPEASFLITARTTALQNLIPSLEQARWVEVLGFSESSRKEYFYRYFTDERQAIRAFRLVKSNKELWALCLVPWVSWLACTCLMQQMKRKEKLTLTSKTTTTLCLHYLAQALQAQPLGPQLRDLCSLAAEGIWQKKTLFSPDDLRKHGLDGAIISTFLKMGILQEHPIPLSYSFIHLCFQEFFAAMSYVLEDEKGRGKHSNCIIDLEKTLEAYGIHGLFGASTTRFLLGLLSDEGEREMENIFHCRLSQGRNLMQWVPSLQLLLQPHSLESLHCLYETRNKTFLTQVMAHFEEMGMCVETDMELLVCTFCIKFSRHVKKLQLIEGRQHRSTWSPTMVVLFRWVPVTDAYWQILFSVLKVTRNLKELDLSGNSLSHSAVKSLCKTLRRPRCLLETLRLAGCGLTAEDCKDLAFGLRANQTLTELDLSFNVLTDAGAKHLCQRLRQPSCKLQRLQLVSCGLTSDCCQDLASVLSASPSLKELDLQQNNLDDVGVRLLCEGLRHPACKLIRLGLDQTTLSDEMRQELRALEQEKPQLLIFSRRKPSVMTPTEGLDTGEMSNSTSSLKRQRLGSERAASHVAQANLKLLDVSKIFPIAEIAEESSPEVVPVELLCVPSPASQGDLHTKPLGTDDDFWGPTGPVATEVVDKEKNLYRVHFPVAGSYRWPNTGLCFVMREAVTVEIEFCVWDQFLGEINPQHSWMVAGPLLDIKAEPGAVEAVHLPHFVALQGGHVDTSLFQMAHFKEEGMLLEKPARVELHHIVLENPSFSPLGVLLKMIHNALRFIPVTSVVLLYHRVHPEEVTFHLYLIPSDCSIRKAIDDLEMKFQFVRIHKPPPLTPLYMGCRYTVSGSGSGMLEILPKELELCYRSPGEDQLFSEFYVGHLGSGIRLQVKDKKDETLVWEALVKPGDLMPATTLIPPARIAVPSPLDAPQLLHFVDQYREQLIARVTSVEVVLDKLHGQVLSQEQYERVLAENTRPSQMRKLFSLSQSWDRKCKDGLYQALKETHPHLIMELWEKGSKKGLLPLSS

[10] = Luminescence Cell-Based Dose Confirmation HTS to Identify Inhibitors of Platelet Dense Granule Release. [Related pubchem assays: 1663 (Primary HTS), 1678 (Summary of Project)]; type: functional
[11] = target: T6, Heat shock factor protein 1 (Mus musculus, UniProt P38532); test: inhibition of MG132-induced HSE-luciferase signal, confirmation, cell-based, NIH3T3, luminescence, dose retest (AID 2382); type: functional;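 further: NIH3T3 fibroblasts with HSF1-driven luciferase reporter stressed by proteasome inhibitor MG132; luminescence from HSF1-driven luciferase expression after 8 hours of MG132 stress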
T6 sequence (P38532 whole entry): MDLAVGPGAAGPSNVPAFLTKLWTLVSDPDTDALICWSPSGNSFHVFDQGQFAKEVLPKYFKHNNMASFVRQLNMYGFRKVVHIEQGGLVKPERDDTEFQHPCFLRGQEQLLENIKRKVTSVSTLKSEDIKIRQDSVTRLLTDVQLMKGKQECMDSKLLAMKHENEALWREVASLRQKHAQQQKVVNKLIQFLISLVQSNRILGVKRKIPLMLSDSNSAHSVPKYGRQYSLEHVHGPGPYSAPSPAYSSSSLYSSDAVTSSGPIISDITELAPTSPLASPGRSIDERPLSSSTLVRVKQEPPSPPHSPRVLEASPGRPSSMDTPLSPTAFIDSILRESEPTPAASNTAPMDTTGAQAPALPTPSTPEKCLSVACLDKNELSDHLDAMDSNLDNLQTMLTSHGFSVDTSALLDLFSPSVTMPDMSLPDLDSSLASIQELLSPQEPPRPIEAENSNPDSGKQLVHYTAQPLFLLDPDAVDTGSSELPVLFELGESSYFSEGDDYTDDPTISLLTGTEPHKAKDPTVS

[12] = target: T7, Corticotropin-releasing factor receptor 2/Corticotropin-releasing factor-binding protein (Homo sapiens, UniProt P24387+Q13324); test: activators of CRF receptor 2 with binding protein – uHTS hits, confirmation (AID 602473); type: functional; settings: read-out: EC50_Mean
T7 sequence (Q13324 whole entry): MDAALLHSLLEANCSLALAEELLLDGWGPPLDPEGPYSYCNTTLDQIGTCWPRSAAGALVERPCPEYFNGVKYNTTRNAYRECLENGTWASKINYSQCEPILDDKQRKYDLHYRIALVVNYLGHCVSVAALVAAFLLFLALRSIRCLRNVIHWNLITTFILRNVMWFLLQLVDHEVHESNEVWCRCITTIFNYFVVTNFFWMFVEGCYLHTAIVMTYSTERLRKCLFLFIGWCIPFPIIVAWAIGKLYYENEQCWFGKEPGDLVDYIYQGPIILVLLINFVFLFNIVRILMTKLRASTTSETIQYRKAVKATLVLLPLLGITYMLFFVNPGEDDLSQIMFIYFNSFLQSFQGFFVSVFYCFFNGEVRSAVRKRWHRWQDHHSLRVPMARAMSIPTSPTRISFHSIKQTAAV
T7 sequence (P24387 whole entry): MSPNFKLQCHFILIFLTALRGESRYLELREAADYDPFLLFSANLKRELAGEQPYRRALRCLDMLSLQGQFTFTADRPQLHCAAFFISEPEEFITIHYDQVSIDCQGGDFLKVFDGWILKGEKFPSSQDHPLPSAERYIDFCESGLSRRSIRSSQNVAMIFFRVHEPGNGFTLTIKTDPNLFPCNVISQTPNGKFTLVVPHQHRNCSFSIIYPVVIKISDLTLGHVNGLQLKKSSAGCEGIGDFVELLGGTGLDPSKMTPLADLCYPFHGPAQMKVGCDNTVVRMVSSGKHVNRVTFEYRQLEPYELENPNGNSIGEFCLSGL

Structure (SMILES): CC(C)c1c(O)nc(SCCN(C)C)nc1O
- EC50 [1]: 0.75 µM (active)

Structure (SMILES): COc1ccc(/N=C(\C)C2=C(O)C(=O)N(CCO)C2c2ccc(Br)cc2)cc1 (stereo not given)
- EC50 [1]: 0.38 µM (active)
- EC50 [2]: 5.96 µM (active)

Structure (SMILES): O=C(Cn1sc2ccccc2c1=O)Nc1cccc(I)c1
- IC50 (Hexokinase): > 25 µM (inactive)

Structure (SMILES): COC(=O)c1ccccc1NC(=O)CSc1nc(-c2ccco2)cc(C(F)(F)F)n1
- IC50 [3]: > 80 µM (inactive)

Structure (SMILES): CCOC(=O)Cc1csc(NC(=O)NC2(C(F)(F)F)Oc3ccc(Cl)cc3O2)n1 (stereo not given)
- Absolute IC50 (CHOP) [4]: 10 µM
- Absolute IC50 (XBP1) (X-box-binding protein 1): 10 µM
- IC50 (H9c2): > 79 µM (inactive)

Structure (SMILES): COC(=O)/C=C\C(=O)Nc1cccc([N+](=O)[O-])c1
- IC50 [5]: 10.1 µM (active)
- IC50 [6]: 2.1 µM (active)
- AC50 [7]: 3.67 µM (active)
- Absolute IC50 (CHOP) [4]: 10 µM
- IC50 (Saccharomyces cerevisiae): 7.1 µM (active)
- EC50 [8]: > 112 µM (not active)
- IC50 [9]: 10.9 µM (active)
- EC50 [10]: 9.34 µM (active)
- EC50 [11]: > 195 µM (not active)

Structure (SMILES): O=C(O)CCNc1nc(-c2ccccc2)c2cc(Br)ccc2n1
- EC50 [1]: 0.13 µM (active)
- EC50 [12]: 2.38 µM (active)

Structure (SMILES): O=c1c2cc(Br)ccc2[s+]([O-])n1-c1ccccc1 (stereo not given)
- IC50 (Hexokinase): > 25 µM (inactive)
